In article PMC9029360, “Cyclooxygenase-Inhibiting Platinum(IV) Prodrugs with Potent Anticancer Activity” (Pharmaceutics, 2022):
Like-named read-outs stand apart in the source and are kept apart here.

Assays:
U87 glioblastoma [1] = conditions: MTT, 72 h, ref [2] Macias et al., Eur. J. Chem. 2015; cited from earlier work
[2] = system: cisplatin-resistant ADDP ovarian (subclone of A2780 cell line); conditions: MTT, 72 h, ref [2] Macias et al., Eur. J. Chem. 2015; cited from earlier work
A2780 ovarian [3] = conditions: MTT, 72 h, ref [2] Macias et al., Eur. J. Chem. 2015; cited from earlier work
MIA pancreas [4] = conditions: MTT, 72 h, ref [2] Macias et al., Eur. J. Chem. 2015; cited from earlier work
MCF-7 breast [5] = conditions: MTT, 72 h, ref [2] Macias et al., Eur. J. Chem. 2015; cited from earlier work
[6] = system: MCF10A breast cell line (non-tumour derived); conditions: MTT, 72 h, ref [2] Macias et al., Eur. J. Chem. 2015; cited from earlier work
[7] = system: HT29 colon cancer cell line; conditions: MTT, 72 h, ref [2] Macias et al., Eur. J. Chem. 2015; cited from earlier work
BE2-C neuroblastoma [8] = conditions: MTT, 72 h, ref [2] Macias et al., Eur. J. Chem. 2015; cited from earlier work
H460 lung [9] = conditions: MTT, 72 h, ref [2] Macias et al., Eur. J. Chem. 2015; cited from earlier work
[10] = system: Du145 prostate cancer cell line; conditions: MTT, 72 h, ref [2] Macias et al., Eur. J. Chem. 2015; cited from earlier work
A431 skin [11] = conditions: MTT, 72 h, ref [2] Macias et al., Eur. J. Chem. 2015; cited from earlier work
SJ-G2 glioblastoma [12] = conditions: MTT, 72 h, ref [2] Macias et al., Eur. J. Chem. 2015; cited from earlier work
[13] = system: MCF10A breast cell line (non-tumour derived); test: In vitro cytotoxicity MTT assay, non-tumour MCF10A breast; type: cell-based; conditions: MCF10A (non-cancerous), 72 h drug exposure, n = 3
U87 glioblastoma [14] = test: In vitro cytotoxicity MTT assay, U87 glioblastoma; type: cell-based; conditions: 72 h drug exposure, n = 3
[15] = system: cisplatin-resistant ADDP ovarian (subclone of A2780 cell line); test: In vitro cytotoxicity MTT assay, cisplatin-resistant ADDP ovarian; type: cell-based; conditions: ADDP (cisplatin-resistant), MTT, 72 h drug exposure, n = 3
SJ-G2 glioblastoma [16] = test: In vitro cytotoxicity MTT assay, SJ-G2 glioblastoma; type: cell-based; conditions: 72 h drug exposure, n = 3
[17] = system: Du145 prostate cancer cell line; test: In vitro cytotoxicity MTT assay, Du145 prostate; type: cell-based; conditions: n = 3
A431 skin [18] = test: In vitro cytotoxicity MTT assay, A431 skin; type: cell-based; conditions: n = 3
BE2-C neuroblastoma [19] = test: In vitro cytotoxicity MTT assay, BE2-C neuroblastoma; type: cell-based; conditions: 72 h drug exposure, n = 3
[20] = system: HT29 colon cancer cell line; test: In vitro cytotoxicity MTT assay, HT29 colon; type: cell-based; conditions: n = 3
MIA pancreas [21] = test: In vitro cytotoxicity MTT assay, MIA pancreas; type: cell-based; conditions: 72 h drug exposure, n = 3
MCF-7 breast [22] = test: In vitro cytotoxicity MTT assay, MCF-7 breast; type: cell-based; conditions: n = 3
A2780 ovarian [23] = test: In vitro cytotoxicity MTT assay, A2780 ovarian; type: cell-based; conditions: 72 h drug exposure, n = 3
H460 lung [24] = test: In vitro cytotoxicity MTT assay, H460 lung; type: cell-based; conditions: n = 3
[25] = Lipophilicity by RP-HPLC (log kw); type: physicochemical; conditions: capacity factor extrapolated to 100% water
Experimental: HPLC experiments were executed on an Agilent (Melbourne, Australia) Technologies 1260 Infinity instrument equipped with a Phenomenex (Sydney, Australia) Onyx^TM Monolithic C18 reverse phase column (100 × 4.6 mm, 130 Å). The mobile phase was comprised of 0.06% TFA in water (solvent A) and 0.06% TFA in an acetonitrile-water mixture (9:1) (solvent B). A sample injection volume of 10 µL was used at a flow rate of 1 mL/min and eluted over a gradient of 0–100% for 15 min. A PDA was used to detect the eluting peaks at 254 nm. Lipophilicity experiments to determine logkw values were undertaken following previously published methods. Rather than a gradient, different isocratic ratios ranging from 28–56% of solvent B were employed and the retention times measured for each complex. Potassium iodide was used as an external dead volume marker to determine the dead time of the column. The following equation was used to calculate the capacity factors:(1) k=tr−t0/t0 where k is the capacity factor, tr is the retention time of the analyte, and t0 is the dead time. Following this, log k was plotted against the percentage of ACN. Five different concentrations of ACN were used to produce a linear plot comprised of R^2 > 0.99. This graph produced the following equation:(2) logk=Sφ+logkw where S is the slope, φ is the % ACN, and the y-intercept, represented as logkw , is the capacity factor of the compound in 100% water.
Lipophilicity studies were carried out to determine the logkw of each complex. This was ascertained through a RP-HPLC based approach whereby complexes were eluted at several isocratic ratios. In turn, retention times were employed as in Equation (1), where the capacity factor (k) was calculated. The log k value at each ratio was then plotted against the percentage of the organic solvent used in solvent B, producing a linear equation that allowed for logkw to be extrapolated (Figure S43). The logkw value represents the retention factor in a 100% aqueous solution; thus, higher values indicate more lipophilic compounds. While this method for determining lipophilicity is slightly different from the shake-flask method, it has been used previously to compare a series of complexes that are structurally similar and is fitting for this group of complexes.

## N.N.O=C([O-])C1(C(=O)[O-])CCC1.[Pt+2] [Carboplatin, carboplatin]
U87 glioblastoma [1]
  GI50: > 50 µM
[2]
  GI50: > 50 µM
A2780 ovarian [3]
  GI50: 9.2 ± 2.9 µM
MIA pancreas [4]
  GI50: > 50 µM
MCF-7 breast [5]
  GI50: > 50 µM
[6]
  GI50: > 50 µM
[7]
  GI50: > 50 µM
BE2-C neuroblastoma [8]
  GI50: 18.7 µM
H460 lung [9]
  GI50: 14 ± 1 µM
[10]
  GI50: 14.7 µM
A431 skin [11]
  GI50: 24.3 µM
SJ-G2 glioblastoma [12]
  GI50: 5.7 µM

## COc1ccc2c(c1)c(CC(=O)O)c(C)n2C(=O)c1ccc(Cl)cc1 [Indomethacin, indomethacin]
[13]; Homo sapiens, MCF-10A
  GI50: > 50 µM
U87 glioblastoma [14]
  GI50: > 50 µM
[15]; Homo sapiens, A2780
  GI50: > 50 µM
SJ-G2 glioblastoma [16]
  GI50: > 50 µM
[17]; Homo sapiens, DU-145, 72 h drug exposure
  GI50: > 50 µM
A431 skin [18]; Homo sapiens, A-431, 72 h drug exposure
  GI50: > 50 µM
BE2-C neuroblastoma [19]; Homo sapiens, BE(2)-C
  GI50: > 50 µM
[20]; Homo sapiens, HT-29, 72 h drug exposure
  GI50: > 50 µM
MIA pancreas [21]
  GI50: > 50 µM
MCF-7 breast [22]; Homo sapiens, MCF7, 72 h drug exposure
  GI50: > 50 µM
A2780 ovarian [23]; Homo sapiens
  GI50: 5.7 ± 0.8 µM
H460 lung [24]; Homo sapiens, NCI-H460, 72 h drug exposure
  GI50: > 50 µM

## COc1ccc2c(c1)c(CC(=O)[O][Pt-2]13([OH])([NH2+]C4CCCCC4[NH2+]1)[n+]1cccc4c(C)c(C)c5ccc[n+]3c5c41)c(C)n2C(=O)c1ccc(Cl)cc1.O=[N+]([O-])[O-].O=[N+]([O-])[O-] (stereo not shown) [compound 2, [Pt(56Me2Phen)(SSDACH)(Indomethacin)(OH)](NO3)2]
[13]
  GI50: 0.023 ± 0.0082 µM
U87 glioblastoma [14]
  GI50: 0.047 ± 0.0049 µM
[25]
  Log kw: 1.28
[15]
  GI50: 0.024 ± 0.0061 µM
SJ-G2 glioblastoma [16]
  GI50: 0.17 ± 0.019 µM
[17]; 72 h drug exposure
  GI50: 0.0075 ± 0.0036 µM
A431 skin [18]; 72 h drug exposure
  GI50: 0.04 ± 0.014 µM
BE2-C neuroblastoma [19]
  GI50: 0.13 ± 0.041 µM
[20]; 72 h drug exposure
  GI50: 0.013 ± 0.0036 µM
MIA pancreas [21]
  GI50: 0.021 ± 0.002 µM
MCF-7 breast [22]; 72 h drug exposure
  GI50: 0.037 ± 0.0023 µM
A2780 ovarian [23]
  GI50: 0.034 ± 0.0086 µM
H460 lung [24]; 72 h drug exposure
  GI50: 0.022 ± 0.0042 µM
